# According to ChEMBL document CHEMBL1201862, “PubChem BioAssay data set” (2004):
# The source made the active and inactive calls.
# Legend:
# [1] = test system: BJ; experiment: cells; assay type: functional, cell-based; settings: Homo sapiens
# [2] = alpha-synuclein stem-loop luciferase translation blockers – H4 neuroglioma cells, luminescence, confirmation (AID 1988); assay type: functional, cell-based
# [3] = biological target: Nucleotide-binding oligomerization domain-containing protein 2 (Homo sapiens, UniProt Q9HC29); experiment: inhibition of NOD2-driven NF-kB reporter – cell-based, luminescence, uHTS, HEK293 (AID 1566); assay type: functional
# [4] = test system: HEK293; experiment: NOD2 signaling inhibitors in MDP-stimulated cells, cell-based, uHTS, luminescence (AID 2001); assay type: functional; settings: Homo sapiens
# [5] = test system: BJ; experiment: BJ-TERT fibroblast viability loss – cell-based, RAS-independent, luminescence, dose response (AID 1933); assay type: functional; settings: Homo sapiens
# [6] = test system: HEK293; experiment: cells; assay type: functional, cell-based; settings: Homo sapiens
# [7] = DRD fibroblast viability loss – cell-based, non-viral oncogenic, luminescence, dose response (AID 1934); assay type: functional; settings: Homo sapiens
# [8] = test system: HEK293; experiment: cells; assay type: functional, cell-based; settings: Homo sapiens; remark: listed apart in the source
# [9] = test system: HEK293; experiment: inhibition of NOD1-driven NF-kB reporter – cell-based, luminescence, uHTS, primary screen (AID 1578); assay type: functional; settings: Homo sapiens
# [10] = test system: HEK293; experiment: cells; assay type: functional, cell-based; settings: Homo sapiens; remark: listed apart in the source
# [11] = luciferase reporter signal suppression in cells – H4 neuroglioma cells, luminescence, dose response (AID 1990); assay type: functional, cell-based
# [12] = Luminescence Cell-Based Dose Response HTS to Identify Inhibitors of 5'UTR Stem-Loop Driven Prion Protein mRNA Translation in H4 Neuroglioblastoma Cells. [Related pubchem assays: 1827 (Project Summary), 1813 (Primary HTS)]; assay type: functional
# [13] = biological target: T1, Cytochrome P450 2C9 (Homo sapiens, UniProt P11712)
# [14] = decrease of insulin promoter-GFP reporter – imaging, high-content screening, mouse beta cells (AID 1628); assay type: functional; settings: MIN6
# [15] = MIN6 cell viability loss – mouse insulinoma, cytotoxicity control, dose response (AID 2122); assay type: functional;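 also: confirmatory high-throughput counterscreen run to flag cytotoxic compounds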
# [16] = biological target: T2, Rac GTPase-activating protein 1 (Homo sapiens, UniProt Q9H0H5); experiment: blockers of MgcRacGAP-driven Rac1 GTP hydrolysis – biochemical, ADP Hunter fluorescence, primary and confirmatory, confirmation (AID 624330); assay type: functional
# T2 sequence (Q9H0H5 whole entry): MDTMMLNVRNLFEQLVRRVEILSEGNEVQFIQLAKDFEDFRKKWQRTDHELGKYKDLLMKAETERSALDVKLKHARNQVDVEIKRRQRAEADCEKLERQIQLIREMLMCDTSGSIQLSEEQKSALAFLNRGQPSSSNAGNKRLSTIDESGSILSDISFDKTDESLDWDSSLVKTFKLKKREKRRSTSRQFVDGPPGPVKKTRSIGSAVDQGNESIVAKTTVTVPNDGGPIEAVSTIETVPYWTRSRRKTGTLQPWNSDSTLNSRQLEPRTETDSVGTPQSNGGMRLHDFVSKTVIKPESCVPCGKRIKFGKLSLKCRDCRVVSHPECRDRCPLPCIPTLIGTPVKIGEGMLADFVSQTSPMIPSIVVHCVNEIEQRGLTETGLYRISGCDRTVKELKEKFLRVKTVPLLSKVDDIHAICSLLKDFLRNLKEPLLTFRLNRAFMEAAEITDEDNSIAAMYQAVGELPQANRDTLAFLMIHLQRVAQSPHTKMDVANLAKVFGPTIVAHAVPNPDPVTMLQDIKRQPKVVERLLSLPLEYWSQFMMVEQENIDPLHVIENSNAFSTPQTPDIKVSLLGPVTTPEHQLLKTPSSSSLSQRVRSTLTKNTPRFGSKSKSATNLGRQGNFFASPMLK
# [17] = biological target: Glucose-6-phosphate 1-dehydrogenase (Homo sapiens, UniProt P11413); experiment: inhibition of Homo sapiens G6PD, dose series – biochemical, fluorescence, selectivity assay for P. falciparum G6PD inhibitor project, dose response (AID 504792); assay type: functional
# [18] = biological target: T3, Carboxy-terminal domain RNA polymerase II polypeptide A small phosphatase 1 (Homo sapiens, UniProt Q9GZU7); experiment: CTDSP1 inhibitors, concentration-response, biochemical, absorbance readout, ultra-high-throughput screen actives (AID 540297); assay type: functional
# T3 sequence (Q9GZU7 whole entry): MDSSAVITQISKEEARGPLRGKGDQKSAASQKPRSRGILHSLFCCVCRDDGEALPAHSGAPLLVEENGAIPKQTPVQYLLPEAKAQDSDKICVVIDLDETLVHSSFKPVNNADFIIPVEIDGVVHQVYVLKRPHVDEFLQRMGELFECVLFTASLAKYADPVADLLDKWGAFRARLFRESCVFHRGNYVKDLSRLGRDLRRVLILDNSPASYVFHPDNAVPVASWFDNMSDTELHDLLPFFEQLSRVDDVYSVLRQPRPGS
# [19] = biological target: Cytochrome P450 3A4 (Homo sapiens, UniProt P08684);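 also: CYP3A4 tested as one member of a cytochrome P450 panel screen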
# [20] = biological target: T4, Estrogen receptor (Homo sapiens, UniProt P03372);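 also: potency for inhibiting coactivator peptide recruitment to the receptor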
# T4 sequence (P03372 whole entry): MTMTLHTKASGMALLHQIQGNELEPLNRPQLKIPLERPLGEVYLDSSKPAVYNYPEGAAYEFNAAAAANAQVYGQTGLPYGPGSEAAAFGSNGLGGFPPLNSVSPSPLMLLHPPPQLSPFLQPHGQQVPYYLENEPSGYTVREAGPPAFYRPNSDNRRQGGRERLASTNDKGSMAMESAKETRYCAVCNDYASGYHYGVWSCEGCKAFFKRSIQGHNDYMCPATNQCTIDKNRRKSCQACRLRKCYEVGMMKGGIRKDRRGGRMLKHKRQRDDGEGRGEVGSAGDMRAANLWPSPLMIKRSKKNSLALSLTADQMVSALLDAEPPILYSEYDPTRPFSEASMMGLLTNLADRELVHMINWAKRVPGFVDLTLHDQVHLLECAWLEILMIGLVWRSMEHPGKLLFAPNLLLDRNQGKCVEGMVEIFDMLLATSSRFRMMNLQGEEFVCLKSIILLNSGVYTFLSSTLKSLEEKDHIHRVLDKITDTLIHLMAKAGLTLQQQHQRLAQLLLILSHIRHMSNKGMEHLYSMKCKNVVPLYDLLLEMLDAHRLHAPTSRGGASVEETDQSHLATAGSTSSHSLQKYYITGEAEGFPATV
# [21] = biological target: Troponin, cardiac muscle (Homo sapiens, UniProt P19429+P45379+P63316); experiment: Fluorescence-based biochemical high throughput dose response assay for activators of the calcium sensitivity of cardiac Regulated Thin Filaments (RTF). [Related pubchem assays (depositor defined):AID493008, AID493018, AID504382, AID504383]; assay type: protein-complex assay
# [22] = test system: HEK293; experiment: cells; settings: Homo sapiens
# [23] = test system: HEK293; experiment: cells; settings: Homo sapiens; remark: listed apart in the source
# [24] = Luminescence Cell-Based Dose Confirmation HTS to Identify Inhibitors of Platelet Dense Granule Release. [Related pubchem assays: 1663 (Primary HTS), 1678 (Summary of Project)]; assay type: functional
# [25] = general cell-killing toxicity readout – plate reader, dry powder samples, cytotoxicity control for PAX8 inhibitor project, dose response (AID 743021); assay type: functional, cell-based
# [26] = biological target: Cytochrome P450 2D6 (Homo sapiens, UniProt P10635);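 also: CYP2D6 member of a cytochrome P450 panel assay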
# [27] = biological target: T5, Cytochrome P450 1A2 (Homo sapiens, UniProt P05177);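 also: PubChem cytochrome P450 panel assay, CYP1A2 panel member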
# T5 sequence (P05177 whole entry): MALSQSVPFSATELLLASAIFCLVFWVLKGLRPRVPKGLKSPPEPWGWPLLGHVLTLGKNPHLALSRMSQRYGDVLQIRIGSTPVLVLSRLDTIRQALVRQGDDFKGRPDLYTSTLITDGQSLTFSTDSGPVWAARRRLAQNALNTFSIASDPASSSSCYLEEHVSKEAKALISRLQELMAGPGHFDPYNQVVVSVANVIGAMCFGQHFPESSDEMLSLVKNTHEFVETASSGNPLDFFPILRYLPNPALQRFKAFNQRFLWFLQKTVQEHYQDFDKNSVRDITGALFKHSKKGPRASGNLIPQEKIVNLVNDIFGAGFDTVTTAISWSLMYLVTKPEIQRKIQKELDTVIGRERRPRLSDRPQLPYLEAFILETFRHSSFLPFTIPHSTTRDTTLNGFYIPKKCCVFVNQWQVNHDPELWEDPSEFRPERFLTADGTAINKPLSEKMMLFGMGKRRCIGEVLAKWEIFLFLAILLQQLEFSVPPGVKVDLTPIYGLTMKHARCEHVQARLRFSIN
# [28] = biological target: Cytochrome P450 2C19 (Homo sapiens, UniProt P33261); experiment: Cytochrome panel assay with activity outcomes. Panel member name: p450-cyp2c19 Compounds with AC50 equal or less than 10 uM are considered active; assay type: functional
# [29] = biological target: T1, Cytochrome P450 2C9; remark: listed apart in the source
smiles,measurement,setting,value
O=C1C=C(c2ccccc2)C[C@H](c2cccs2)[C@H]1n1nnc([N+](=O)[O-])n1,EC50,[1],1.11 µM (active)
same,EC50,[2],9.23 µM (active)
same,EC50,[3],11 µM (active)
same,IC50,[4],9.37 µM (active)
same,EC50,[5],0.681 µM (active)
same,IC50,[6],> 20 µM (inactive)
same,EC50,[7],0.668 µM (active)
same,IC50,[8],> 20 µM (inactive)
same,EC50,[9],9.57 µM (active)
same,IC50,[10],> 20 µM (inactive)
same,EC50,[11],6.52 µM (active)
same,EC50,[12],17.5 µM (active)
COc1ccc(CCNC(=O)c2ccc3c(c2)N(Cc2ccccc2)CCS3)cc1OC,EC50,[3],> 20 µM (inactive)
same,IC50,[4],7.53 µM (active)
same,IC50,[6],8.65 µM (active)
same,IC50,[8],> 20 µM (inactive)
same,EC50,[9],6.99 µM (active)
same,IC50,[10],> 20 µM (inactive)
CC1CCCC(C)N1C(=O)c1cc(-c2ccc(Cl)c(Cl)c2)on1 (stereo unspecified),AC50,[13],inconclusive
Cc1nc2ccccn2c1C(=O)N=Nc1c(O)n(CCC(C)C)c2ccccc12,IC50,[14],1.67 µM (active)
same,IC50,[15],2.72 µM (active)
COc1cc(N)c2ncccc2c1SC,IC50,[16],41.3 µM (active)
same,IC50,[17],> 80 µM (inactive)
Cc1cc(C(=O)Nc2ccccc2C(=O)O)ccc1NC(=O)COc1ccccc1Cl,EC50,[3],5.38 µM (active)
same,IC50,[4],> 20 µM (inactive)
same,IC50,[18],6.31 µM (active)
same,IC50,[6],> 20 µM (inactive)
same,IC50,[8],> 20 µM (inactive)
same,EC50,[9],> 20 µM (inactive)
same,IC50,[10],> 20 µM (inactive)
O=C1CC(c2ccc(F)cc2)Cc2nc(NCC3CCCO3)ncc21 (stereo unspecified),AC50,[19],inconclusive
same,IC50,[20],> 50 µM (not active)
C/C(NN1CCCCC1c1cccnc1)=C1/C(=O)NC(=S)N(C2CCCCC2)C1=O (stereo unspecified),EC50,[21],14.9 µM (inactive)
same,EC50,[22],> 59.6 µM (inactive)
same,EC50,[23],> 59.6 µM (inactive)
COc1ccc(N(Cc2cc3cc(OC)ccc3nc2O)S(=O)(=O)c2ccc(NC(C)=O)cc2)cc1,EC50,[24],> 112 µM (not active)
same,IC50,[4],> 20 µM (inactive)
same,IC50,[6],7.22 µM (active)
same,AC50,[25],49.1 µM (active)
same,IC50,[8],> 20 µM (inactive)
same,EC50,[9],> 20 µM (inactive)
same,IC50,[10],> 20 µM (inactive)
Cc1ccccc1-c1cc(N(C)C)ncn1,AC50,[19],inconclusive
same,AC50,[26],39.8 µM (inconclusive)
c1ccc2c3nc[nH]c(N4CCCC4)c-3nc2c1,IC50,[14],3.72 µM (active)
same,IC50,[15],3.1 µM (active)
COc1ccc(NC(=O)c2ccc(-n3cccn3)nc2)c(OC)c1,AC50,[27],2.82 µM (inconclusive)
same,AC50,[13],inconclusive
same,AC50,[28]; read-out: AC50,14.1 µM (inconclusive)
COc1ccc2c(c1[N+](=O)[O-])CCC/C2=N/OC(=O)c1cccc2ccccc12,AC50,[13],inconclusive
Cn1c(=O)c(-c2cccc(C#N)c2)nc2cnc(Oc3ccccc3)nc21,AC50,[19],inconclusive
O=C1C=CC(=O)N1c1ccc(-c2nc3ccccc3o2)cc1,IC50,[17],> 80 µM (inactive)
CCCCCCCCCC[Si](C)(C)CCC(=O)N[C@@H](Cc1ccc(C)cc1)c1ccccc1,AC50,[27],31.6 µM (inconclusive)
same,AC50,[13],inconclusive
same,AC50,[28],inconclusive
same,AC50,[26],39.8 µM (inconclusive)
CCCC(C)Sc1nc2c(=S)n(C)c(=O)n(C)c2[nH]1 (stereo unspecified),EC50,[22],> 59.7 µM (inactive)
same,EC50,[23],> 59.7 µM (inactive)
CC1(C)CC(NC(=O)c2ccc3c(c2)OCO3)CC(C)(C)N1,AC50,[19],inconclusive
same,AC50,[29],8.91 µM (inconclusive)
CCNc1nc(NC(C)C)nc(NS(=O)(=O)c2ccc(Cl)cc2)n1,IC50,[17],> 80 µM (inactive)
